In article PMC10970734, “Identification of an Intravenous Injectable NK1 Receptor Antagonist for Use in Traumatic Brain Injury” (International Journal of Molecular Sciences, 2024):

Key:
[1] = parameters: method as in PMID 20795794, PMID 18042005; settings: slow infusion 20-30 min; cited from earlier work
rodent model of TBI [2] = assay: Mortality after severe impact-acceleration TBI; format: in vivo, Sprague Dawley rats; settings: rat severe TBI, 10 mg/kg 30 min after injury
Procedure: Injury was induced using an impact-acceleration model of TBI which generates a rodent form of diffuse axonal injury, a major feature of clinical head injury. The level of injury induced in these studies was classified as “severe” [60]. In terms of assessing treatment effects, the study was performed in a blinded manner. […] In line with the “severe” nature of the injury, significant mortality rates were observed within the cohort of injured animals. However, the mortality rates varied between the treatment groups. In the “drug vehicle” group, a mortality rate of 30% was observed, which is in line with the nature of the injury.
Injury was induced in halothane-anesthetized (ProVet) male Sprague Dawley rats (400 ± 20 g) using acceleration-induced impact TBI [29, 93]. This model involves impacting a 10 mm diameter, 3 mm thick stainless steel disc fixed centrally to the exposed skull between the lambda and bregma with an accelerating impactor. The impactor was a 450 g brass weight dropped from a height of 2 m. Earlier studies have shown that the impact acceleration injury produces diffuse axonal injury, oedema, BBB opening, Mg^2+ decline, and moderate-to-severe neurologic deficits. All animals were fed and watered ad libitum before the induction of injury. […] Blood pressure was monitored, both before and after injury, using a femoral arterial line. […]

rodent model of TBI [3] = assay: Motor function after TBI, rotarod test; format: in vivo, Sprague Dawley rats; settings: rat TBI, 10 mg/kg 30 min post-injury
Excerpt: The maximum duration of the task was 120 s.
Injury was induced in halothane-anesthetized (ProVet) male Sprague Dawley rats (400 ± 20 g) using acceleration-induced impact TBI [29, 93]. This model involves impacting a 10 mm diameter, 3 mm thick stainless steel disc fixed centrally to the exposed skull between the lambda and bregma with an accelerating impactor. The impactor was a 450 g brass weight dropped from a height of 2 m. […] All animals were fed and watered ad libitum before the induction of injury. During both surgery and the immediate recovery phase, rat rectal temperature was maintained using a thermostatically controlled heating pad. Immediately after injury, animals were manually ventilated until stable respiration was restored, usually in <5 min. After injury, all wounds were sutured. Blood pressure was monitored, both before and after injury, using a femoral arterial line.
Motor and cognitive outcomes in animals (n = 6 per group) were assessed using the rotarod and Barnes maze, respectively, as described in detail elsewhere [64]. The rotarod consists of a motorized rotating assembly of 18 rods (1 mm in diameter) upon which the animals were placed. The rotational speed of the device was increased from 0 to 30 r.p.m. and the duration (in seconds) when the animals either completed the task, fell from the rods, or gripped the rods and spun for two consecutive revolutions rather than walking actively was recorded as the rotarod score. […] After activating the bright lights and aversive auditory stimulus, the latency (in seconds) for the animal to locate and enter the escape tunnel was recorded. All animals were pretrained on both functional outcome tests twice per day over 5 days before injury to establish a normal, uninjured baseline.

rodent model of TBI [4] = assay: Cognitive function after TBI, Barnes maze; format: in vivo, Sprague Dawley rats; settings: rat TBI, 10 mg/kg 30 min post-injury, 10 days
Procedure: Cognitive outcome was assessed using the Barnes maze in order to reduce the potential confounding effects that may be associated with tests such as the Morris water maze. In the Barnes maze, animals were placed under a cover in the centre of an elevated 1.2 m diameter board containing 19 holes around the periphery. One hole contained the entrance to a darkened escape tunnel that was not visible from the surface, relying on the animal to use surrounding visual cues to locate the tunnel. The time, in seconds, for the animal to locate and enter the escape tunnel was recorded. Following pre-training, the effect of injury, and post-injury treatment, on the time taken for the animal to locate the tunnel was measured (Figure 7). […]
Injury was induced in halothane-anesthetized (ProVet) male Sprague Dawley rats (400 ± 20 g) using acceleration-induced impact TBI [29, 93]. […] Blood pressure was monitored, both before and after injury, using a femoral arterial line. […]
Motor and cognitive outcomes in animals (n = 6 per group) were assessed using the rotarod and Barnes maze, respectively, as described in detail elsewhere. […] The rotational speed of the device was increased from 0 to 30 r.p.m. and the duration (in seconds) when the animals either completed the task, fell from the rods, or gripped the rods and spun for two consecutive revolutions rather than walking actively was recorded as the rotarod score. […]

NK1R = settings: cited from earlier work
[5] = parameters: method as in PMID 20795794; settings: parent drug; cited from earlier work

C[C@@H](O[C@H]1OCCN(Cc2nc(O)n(P(=O)(O)O)n2)[C@H]1c1ccc(F)cc1)c1cc(C(F)(F)F)cc(C(F)(F)F)c1 [Fosaprepitant, fosaprepitant]
Time to conversion to aprepitant after end of infusion [1]: ≤ 30 min

C[C@]12N[C@H](Cc3ccccc31)c1ccccc12 [MK801]
Mortality rate (rodent model of TBI [2]): 48%
Motor function, rotarod score (rodent model of TBI [3]; 10 days): did not provide any beneficial outcome relative to the drug vehicle
Recovery of motor function over the 10-day test period (rodent model of TBI [3]; rotarod): approximately 50%
Cognitive function, Barnes maze time to locate escape tunnel (rodent model of TBI [4]): performance returning close to pre-injury by the end of the study period

CC(=O)N[C@@H](Cc1c[nH]c2ccccc12)C(=O)O [NAT, N-acetyl-L-tryptophan]
NK1R binding (NK1R): lack of NK1R binding

C[C@@H](O[C@H]1OCCN(Cc2n[nH]c(=O)[nH]2)[C@H]1c1ccc(F)cc1)c1cc(C(F)(F)F)cc(C(F)(F)F)c1 [aprepitant]
Aqueous solubility [5]: 0.2 µg/mL
